Experimental data as given in patent US5386019A, “Synthesis of inhibitors of calmodulin-mediated enzymes including KS-501, KS-502 and their enantiomers” (Yale University, priority 1992, dated 1995).

What was measured:
[1] = tested on: Ca++/CaM dependent Kinase II; test: Synapsin I phosphorylation at sites 2,3 by Ca++/Calmodulin kinase (Table I A); assay type: biochemical; conditions: for Inhibitory activity against CaM-dependent kinases compared with cAMP-dependent kinase or protein kinase C: from data in Table I
CaM KI = test: Synapsin I phosphorylation at site 1 by Ca++/Calmodulin kinase (Table I A); assay type: biochemical
PKC = test: Synapsin I phosphorylation by PKC, Ca++/PSD (Table I B); assay type: biochemical
Excerpt: (§1) KS-501 & ent-KS-501 as Inhibitors of Ca++/Calmodulin PKC PKA
(§2) The results represent the mean of 3 experiments
Therefore in the reaction of CaMK or PKC, PKA inhibitor is included in th
In vitro PKC is able to phosphorylate Synapsin I at all 3 serine sites.

cAMP dependent kinase = test: Synapsin I phosphorylation by PKA, cAMP (Table I C); assay type: biochemical
Excerpt: as §1, §2
Site 1 is phosphorylated by both CaM KI and cAMP dependent kinase.
reaction mix. And in the reaction of PKA, EGTA is included.

[2] = tested on: Ca2+/CaM-sensitive phosphodiesterase; test: Inhibition of Ca2+/CaM-sensitive phosphodiesterase (FIGS. 1-4); assay type: biochemical; conditions: for Inhibitory effects on CaM-mediated enzyme activity: enantiomers compared with KS-501 and KS-502
Excerpt: FIG. 1 is a graph showing the effect of various concentrations of KS-501 on the activity of Ca^2+ /CaM-dependent phosphodiesterase.
FIG. 2 is a graph showing the effect of various concentrations of ent-KS-501 on the activity of Ca^2+ /CaM-dependent phosphodiesterase.
FIG. 3 is a graph showing the effect of various concentrations of KS-502 on the activity of Ca^2+ /CaM-dependent phosphodiesterase.
FIG. 4 is a graph showing the effect of various concentrations of ent-KS-502 on the activity of Ca^2+ /CaM-dependent phosphodiesterase.

CaM-PDE = conditions: background, cited from earlier work; for Concentration range inhibiting CaM-dependent activities of CaM-PDE: Nakanishi et al.
protein kinase C = conditions: background; cited from earlier work
[3] = Basal, compound 10 μM, basal control 0.016, mean of 3 experiments
[4] = Basal, compound 40 μM, basal control 0.016
[5] = Ca++/CaM, compound 10 μM, Ca++ CaM 3 μg control 0.125
[6] = Ca++/CaM, compound 40 μM, Ca++ CaM 3 μg control 0.125
[7] = Basal, compound 10 μM, basal control 0.022
[8] = Basal, compound 40 μM, basal control 0.022
[9] = Ca++/CaM, compound 10 μM, Ca++ CaM 3 μg control 0.049
[10] = Ca++/CaM, compound 40 μM, Ca++ CaM 3 μg control 0.049
[11] = Basal, compound 10 μM, basal control 0.016
[12] = Basal, compound 10 μM, basal control 0.018
[13] = Basal, compound 40 μM, basal control 0.018
[14] = Ca++/PSD, compound 10 μM, Ca++ PSD control 0.045
[15] = Ca++/PSD, compound 10 μM, Ca++ PSD control 0.079
[16] = Ca++/PSD, compound 40 μM, Ca++ PSD control 0.045
[17] = Ca++/PSD, compound 40 μM, Ca++ PSD control 0.079
[18] = Basal, compound 10 μM, basal control 0.007
[19] = Basal, compound 10 μM, basal control 0.028
[20] = Basal, compound 40 μM, basal control 0.007
[21] = Basal, compound 40 μM, basal control 0.028
[22] = cAMP, compound 10 μM, cAMP 1 μM control 0.008
[23] = cAMP, compound 10 μM, cAMP 1 μM control 0.041
[24] = cAMP, compound 40 μM, cAMP 1 μM control 0.008
[25] = cAMP, compound 40 μM, cAMP 1 μM control 0.041

Row | Structure (SMILES) | Concentration range inhibitory of CaM-sensitive Kinase II [1] [µM] | Phosphorylation of Synapsin I site 2,3 [1, 3] [pmole/mg protein/min] | Phosphorylation of Synapsin I site 2,3 [1, 4] [pmole/mg protein/min] | Phosphorylation of Synapsin I site 2,3 [1, 5] [pmole/mg protein/min] | Phosphorylation of Synapsin I site 2,3 [1, 6] [pmole/mg protein/min] | Inhibitory activity against CaM-dependent kinases compared with cAMP-dependent kinase or protein kinase C [1] | Phosphorylation of Synapsin I site 1 (CaM KI; [7]) [pmole/mg protein/min] | Phosphorylation of Synapsin I site 1 (CaM KI; [8]) [pmole/mg protein/min] | Phosphorylation of Synapsin I site 1 (CaM KI; [9]) [pmole/mg protein/min] | Phosphorylation of Synapsin I site 1 (CaM KI; [10]) [pmole/mg protein/min] | Phosphorylation of Synapsin I site 2,3 (PKC; [11]) [pmole/mg protein/min] | Phosphorylation of Synapsin I site 1 (PKC; [12]) [pmole/mg protein/min] | Phosphorylation of Synapsin I site 2,3 (PKC; [4]) [pmole/mg protein/min] | Phosphorylation of Synapsin I site 1 (PKC; [13]) [pmole/mg protein/min] | Phosphorylation of Synapsin I site 1 (PKC; [14]) [pmole/mg protein/min] | Phosphorylation of Synapsin I site 2,3 (PKC; [15]) [pmole/mg protein/min] | Phosphorylation of Synapsin I site 1 (PKC; [16]) [pmole/mg protein/min] | Phosphorylation of Synapsin I site 2,3 (PKC; [17]) [pmole/mg protein/min] | Phosphorylation of Synapsin I site 2,3 (cAMP dependent kinase; [18]) [pmole/mg protein/min] | Concentration range inhibitory of Ca2+/CaM-sensitive phosphodiesterase [2] | other results
1 | CCCCCCCc1cc(O)cc(OC(=O)c2c(CCCCCCC)cc(O)cc2O[C@@H]2O[C@@H]([C@H](O)CO)[C@H](O)[C@H]2O)c1 [KS-501] | 10 to 40 | 0.017 | 0.015 | 0.087 | 0.012 | more inhibitory activity against CaM-dependent kinases than against cAMP-dependent kinase or protein kinase C | 0.025 | 0.017 | 0.054 | 0.011 | 0.015 | 0.020 | 0.015 | 0.016 | 0.041 | 0.061 | 0.017 | 0.030 | 0.008 | 1 to 2 µM | Phosphorylation of Synapsin I site 1 (cAMP dependent kinase; [19]): 0.033 pmole/mg protein/min; Phosphorylation of Synapsin I site 2,3 (cAMP dependent kinase; [20]): 0.007 pmole/mg protein/min; Phosphorylation of Synapsin I site 1 (cAMP dependent kinase; [21]): 0.015 pmole/mg protein/min; Phosphorylation of Synapsin I site 2,3 (cAMP dependent kinase; [22]): 0.008 pmole/mg protein/min; Phosphorylation of Synapsin I site 1 (cAMP dependent kinase; [23]): 0.049 pmole/mg protein/min; Phosphorylation of Synapsin I site 2,3 (cAMP dependent kinase; [24]): 0.009 pmole/mg protein/min; Phosphorylation of Synapsin I site 1 (cAMP dependent kinase; [25]): 0.025 pmole/mg protein/min; Concentration range inhibiting CaM-dependent activities of CaM-PDE (CaM-PDE): 1 to 5 µM; Concentrations required to inhibit CaM-independent activities (CaM-PDE): Much higher concentrations; Effect on protein kinase C (protein kinase C): no effect
2 | CCCCCCCc1cc(OC(=O)c2c(CCCCCCC)cc(O)cc2O[C@@H]2O[C@@H]([C@H](O)CO)[C@H](O)[C@H]2O)cc(O)c1C(=O)O [KS-502] |  |  |  |  |  |  |  |  |  |  |  |  |  |  |  |  |  |  |  | approximately 10 μM | Concentration range inhibiting CaM-dependent activities of CaM-PDE (CaM-PDE): 1 to 5 µM; Concentrations required to inhibit CaM-independent activities (CaM-PDE): Much higher concentrations; Effect on protein kinase C (protein kinase C): no effect
3 | CCCCCCCc1cc(OC(=O)c2c(CCCCCCC)cc(O)cc2O[C@H]2O[C@H]([C@@H](O)CO)[C@@H](O)[C@@H]2O)cc(O)c1C(=O)O [ent-KS-502] |  |  |  |  |  |  |  |  |  |  |  |  |  |  |  |  |  |  |  | approximately 10 μM | Inhibitory effects on CaM-mediated enzyme activity [2]: possess inhibitory activity
4 | CCCCCCCc1cc(O)cc(OC(=O)c2c(CCCCCCC)cc(O)cc2O[C@H]2O[C@H]([C@@H](O)CO)[C@@H](O)[C@@H]2O)c1 [ent-KS-501] | 10 to 40 | 0.018 | 0.018 | 0.076 | 0.021 | more inhibitory activity against CaM-dependent kinases than against cAMP-dependent kinase or protein kinase C | 0.023 | 0.019 | 0.043 | 0.012 | 0.015 | 0.018 | 0.014 | 0.013 | 0.047 | 0.067 | 0.01 | 0.02 | 0.006 | 1 to 2 µM | Phosphorylation of Synapsin I site 1 (cAMP dependent kinase; [19]): 0.025 pmole/mg protein/min; Phosphorylation of Synapsin I site 2,3 (cAMP dependent kinase; [20]): 0.010 pmole/mg protein/min; Phosphorylation of Synapsin I site 1 (cAMP dependent kinase; [21]): 0.017 pmole/mg protein/min; Phosphorylation of Synapsin I site 2,3 (cAMP dependent kinase; [22]): 0.009 pmole/mg protein/min; Phosphorylation of Synapsin I site 1 (cAMP dependent kinase; [23]): 0.049 pmole/mg protein/min; Phosphorylation of Synapsin I site 2,3 (cAMP dependent kinase; [24]): 0.008 pmole/mg protein/min; Phosphorylation of Synapsin I site 1 (cAMP dependent kinase; [25]): 0.03 pmole/mg protein/min; Inhibitory effects on CaM-mediated enzyme activity [2]: possess inhibitory activity
